Paper PMC12508063, “Chloroindazole based estrogen receptor β ligands with favorable pharmacokinetics promote functional remyelination and visual recovery” (Scientific Reports, 2025)
“And” between values parts separate entries of the source, which are not always exact repeats. Equal entries are not always repeated. Structures can show the parent of a compound that is named as a salt.

Tests used:
CYP2D6 = CYP2D6 (Homo sapiens, UniProt P10635); assay: CYP inhibition; settings: human, probe Dextromethorphan
CYP3A4 = CYP3A4 (Homo sapiens, UniProt P08684); assay: in vitro
[1] = system: co-cultures of primary cortical neurons and OPCs; assay: Axon myelination in co-cultures of primary cortical neurons and OPCs; format: cell-based, mouse; settings: K102, K110 10 nM; Clemastine, Bazedoxifene 500 nM; 5 days
[2] = Stability in human plasma; format: in vitro ADME
[3] = Plasma protein binding (mouse)
[4] = Plasma protein binding (human)
ERβ = target: T1, ERβ (Homo sapiens, UniProt Q92731); assay: ER reporter gene assay in HEK 293 T cells (ER-luciferase reporter); format: cell-based; settings: for Reporter gene assay raw data, ERb: ERb data block (head r19), 4 replicate columns; for ERb reporter gene assay raw data (response): four replicate columns per compound
T1 construct: expressed in transfected cells; host or cells: HEK 293 T cells

ERα = target: T2, ERα (Homo sapiens, UniProt P03372); assay: as above; format: cell-based; settings: for Reporter gene assay raw data, ERa: 4 replicate columns
T2 construct: expressed in transfected cells; host or cells: HEK 293 T cells
T2 sequence (P03372 1-595): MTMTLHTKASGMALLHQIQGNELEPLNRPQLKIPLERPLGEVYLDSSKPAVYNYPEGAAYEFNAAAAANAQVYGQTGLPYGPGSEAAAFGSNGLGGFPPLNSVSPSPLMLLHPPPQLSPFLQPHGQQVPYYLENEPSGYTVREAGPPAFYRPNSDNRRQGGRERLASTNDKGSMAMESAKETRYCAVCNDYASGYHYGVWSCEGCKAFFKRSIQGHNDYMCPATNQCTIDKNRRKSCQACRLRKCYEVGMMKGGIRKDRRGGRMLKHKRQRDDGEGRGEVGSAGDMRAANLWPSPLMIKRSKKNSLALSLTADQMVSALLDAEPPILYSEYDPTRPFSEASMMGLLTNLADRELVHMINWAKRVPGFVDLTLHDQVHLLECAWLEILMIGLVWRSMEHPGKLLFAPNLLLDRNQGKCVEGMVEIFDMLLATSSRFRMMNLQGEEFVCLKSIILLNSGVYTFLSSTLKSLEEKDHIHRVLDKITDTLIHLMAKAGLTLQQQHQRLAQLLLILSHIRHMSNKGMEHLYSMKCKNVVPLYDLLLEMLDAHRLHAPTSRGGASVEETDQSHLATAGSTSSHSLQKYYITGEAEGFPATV

CYP2C9 = CYP2C9 (Homo sapiens, UniProt P11712); assay: CYP inhibition; settings: human
Chain of CYP2C9 (P11712 whole entry): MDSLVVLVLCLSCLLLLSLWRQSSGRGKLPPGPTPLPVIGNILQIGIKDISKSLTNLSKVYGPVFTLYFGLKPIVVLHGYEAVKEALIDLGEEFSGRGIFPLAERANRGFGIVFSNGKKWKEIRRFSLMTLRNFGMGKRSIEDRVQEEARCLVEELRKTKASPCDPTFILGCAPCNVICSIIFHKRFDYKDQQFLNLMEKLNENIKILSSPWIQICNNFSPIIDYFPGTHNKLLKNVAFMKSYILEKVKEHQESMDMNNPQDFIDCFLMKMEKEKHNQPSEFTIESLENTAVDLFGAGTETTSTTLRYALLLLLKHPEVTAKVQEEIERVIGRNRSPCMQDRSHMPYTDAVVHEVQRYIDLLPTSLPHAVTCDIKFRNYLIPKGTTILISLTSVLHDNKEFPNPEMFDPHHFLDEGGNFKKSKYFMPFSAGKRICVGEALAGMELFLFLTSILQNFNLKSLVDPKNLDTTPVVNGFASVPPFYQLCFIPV

T1 sequence (Q92731 whole entry, species assumed): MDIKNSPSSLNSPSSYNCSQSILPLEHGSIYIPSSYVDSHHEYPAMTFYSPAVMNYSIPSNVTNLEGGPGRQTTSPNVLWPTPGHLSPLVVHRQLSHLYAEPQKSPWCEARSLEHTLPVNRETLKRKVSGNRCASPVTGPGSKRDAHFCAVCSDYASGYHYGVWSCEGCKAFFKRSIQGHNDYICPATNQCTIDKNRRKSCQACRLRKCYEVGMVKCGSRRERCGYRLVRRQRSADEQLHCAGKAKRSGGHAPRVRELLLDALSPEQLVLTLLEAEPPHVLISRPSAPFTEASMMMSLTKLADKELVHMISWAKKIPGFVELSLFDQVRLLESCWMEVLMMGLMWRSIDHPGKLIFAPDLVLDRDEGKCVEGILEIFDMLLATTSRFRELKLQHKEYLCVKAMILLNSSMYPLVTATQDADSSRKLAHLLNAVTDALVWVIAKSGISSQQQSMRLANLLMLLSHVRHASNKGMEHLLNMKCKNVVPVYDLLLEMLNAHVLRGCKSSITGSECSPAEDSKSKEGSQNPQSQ
Chain of CYP3A4 (P08684 whole entry): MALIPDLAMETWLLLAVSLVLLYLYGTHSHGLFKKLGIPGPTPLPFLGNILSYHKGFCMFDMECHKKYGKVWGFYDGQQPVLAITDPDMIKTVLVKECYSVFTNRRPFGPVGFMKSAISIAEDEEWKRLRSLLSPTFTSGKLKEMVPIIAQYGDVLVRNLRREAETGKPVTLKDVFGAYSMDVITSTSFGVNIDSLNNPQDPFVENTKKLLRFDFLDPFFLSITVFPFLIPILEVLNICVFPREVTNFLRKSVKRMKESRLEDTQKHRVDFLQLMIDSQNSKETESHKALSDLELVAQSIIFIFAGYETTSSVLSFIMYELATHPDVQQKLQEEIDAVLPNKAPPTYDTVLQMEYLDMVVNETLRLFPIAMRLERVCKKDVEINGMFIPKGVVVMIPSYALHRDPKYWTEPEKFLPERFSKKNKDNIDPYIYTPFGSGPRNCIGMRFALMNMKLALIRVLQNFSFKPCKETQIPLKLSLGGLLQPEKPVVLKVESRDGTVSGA
Chain of CYP2D6 (P10635 whole entry): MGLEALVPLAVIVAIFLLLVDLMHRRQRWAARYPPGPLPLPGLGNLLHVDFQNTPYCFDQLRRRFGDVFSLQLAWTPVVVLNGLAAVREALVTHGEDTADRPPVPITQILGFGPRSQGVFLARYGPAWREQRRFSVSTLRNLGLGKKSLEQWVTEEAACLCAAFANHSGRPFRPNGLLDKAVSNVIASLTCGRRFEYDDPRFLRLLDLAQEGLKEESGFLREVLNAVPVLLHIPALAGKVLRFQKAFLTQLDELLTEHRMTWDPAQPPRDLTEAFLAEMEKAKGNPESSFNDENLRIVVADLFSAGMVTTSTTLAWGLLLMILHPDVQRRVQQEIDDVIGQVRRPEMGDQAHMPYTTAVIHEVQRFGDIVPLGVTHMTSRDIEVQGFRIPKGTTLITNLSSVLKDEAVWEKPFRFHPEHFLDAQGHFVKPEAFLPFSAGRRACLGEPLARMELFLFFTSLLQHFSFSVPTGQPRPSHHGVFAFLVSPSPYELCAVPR

Question: For `C=C[C@H]1C[N@@]2CC[C@H]1C[C@@H]2[C@@H](O)c1ccnc2ccc(OC)cc12` [Quinidine], which inhibition at 10 µM (CYP2D6) is on record?
Answer: Its inhibition at 10 µM is 92.7%.

Question: For `CC(=O)N1CCN(c2ccc(OCC3COC(Cn4ccnc4)(c4ccc(Cl)cc4Cl)O3)cc2)CC1` (stereo not shown) [Ketoconazole], which inhibition at 10 µM (CYP3A4; CYP Inhibition Percentage CYP3A4-M) is on record?
Answer: The inhibition at 10 µM was 95.5%.

Question: And the inhibition at 10 µM (CYP3A4; CYP Inhibition Percentage CYP3A4-T)?
Answer: The inhibition at 10 µM was 92.5%.

Question: Which “OL processes wrapping axons” value [1] does the source give for `CN1CCC[C@@H]1CCO[C@](C)(c1ccccc1)c1ccc(Cl)cc1` [Clemastine, Clemastine fumarate] here?
Answer: Its value is “significant increase”.

Question: With `CC(=O)CC(c1ccccc1)c1c(O)c2ccccc2oc1=O` (stereo not shown) [Wafarine] as the compound, how does the “% Remaining at 6 hr in Human Plasma” value [2] read?
Answer: Its value is 111.24%.

Question: And the “Protein Binding (% Bound) Mouse” value [3]?
Answer: Its value is 93.11%.

Question: What about the “Protein Binding (% Bound) Human” value [4] of the same compound?
Answer: The value was 98.68%.

Question: What does the source list for `Oc1ccc(-n2nc3ccc(O)cc3c2Cl)cc1` [Compound K-101]?
Answer: Reporter gene assay raw data, ERb (ERβ; Log M -6): 120.988 and 116.157 and 143.98 and 147.219; ERb reporter gene assay raw data (response) (ERβ; Log M -6): 111.44 and 122.263 and 112.615 and 103.371; Reporter gene assay raw data, ERb (ERβ; Log M -6.47756): 114.841 and 114.867 and 137.295 and 151.298; ERb reporter gene assay raw data (response) (ERβ; Log M -6.47756): 99.9004 and 104.917 and 98.5023 and 107.756; Reporter gene assay raw data, ERb (ERβ; Log M -6.95468): 124.443 and 116.848 and 139.382 and 142.558; ERb reporter gene assay raw data (response) (ERβ; Log M -6.95468): 103.919 and 109.742 and 107.029 and 112.5; Reporter gene assay raw data, ERb (ERβ; Log M -7.4318): 110.594 and 113.713 and 119.524 and 142.929; ERb reporter gene assay raw data (response) (ERβ; Log M -7.4318): 106.837 and 108.962 and 105.441 and 101.954; Reporter gene assay raw data, ERb (ERβ; Log M -7.91009): 112.17 and 111.487 and 138.169 and 129.452; ERb reporter gene assay raw data (response) (ERβ; Log M -7.91009): 109.149 and 102.176 and 94.3567 and 106.552; Reporter gene assay raw data, ERb (ERβ; Log M -8.3851): 117.284 and 114.634 and 116.673 and 134.281; ERb reporter gene assay raw data (response) (ERβ; Log M -8.3851): 104.39 and 105.189 and 99.3517 and 108.832; Reporter gene assay raw data, ERb (ERβ; Log M -8.86328): 116.233 and 118.325 and 116.611 and 129.233; ERb reporter gene assay raw data (response) (ERβ; Log M -8.86328): 100.866 and 91.0385 and 99.5048 and 94.2764; Reporter gene assay raw data, ERb (ERβ; Log M -9.34008): 83.1588 and 87.5707 and 97.8302 and 99.1529; ERb reporter gene assay raw data (response) (ERβ; Log M -9.34008): 78.6235 and 76.3041 and 74.4798 and 84.9468; Reporter gene assay raw data, ERb (ERβ; Log M -9.81816): 46.3463 and 45.2097 and 53.3712 and 57.2512; ERb reporter gene assay raw data (response) (ERβ; Log M -9.81816): 51.4383 and 42.8216 and 46.1589 and 42.3832; Reporter gene assay raw data, ERb (ERβ; Log M -10.2941): 13.5511 and 13.5131 and 21.4772 and 19.6971; ERb reporter gene assay raw data (response) (ERβ; Log M -10.2941): 11.6805 and 12.8501 and 11.4455 and 13.5515; Reporter gene assay raw data, ERb (ERβ; Log M -10.7721): 2.426 and 2.349 and 4.55 and 3.395; ERb reporter gene assay raw data (response) (ERβ; Log M -10.7721): 3.239 and 2.8663 and 1.689 and 3.053; Reporter gene assay raw data, ERb (ERβ; Log M -11.248): 1.344 and 1.212 and 1.016 and 0.8144; ERb reporter gene assay raw data (response) (ERβ; Log M -11.248): 2.211 and 0.8495 and 0.02026 and 1.717; ERb reporter gene assay raw data (response) (ERβ; Log M -13): 0.5566 and -0.5566 and 0.8119 and -0.8119; Reporter gene assay raw data, ERa (ERα; Log M -6, first ERa data block (head r2)): 104.545 and 98.5711 and 90.2001 and 86.8078; Reporter gene assay raw data, ERa (ERα; Log M -6, second ERa data block (head r34)): 95.025 and 94.1762 and 88.9253 and 94.8982; Reporter gene assay raw data, ERa (ERα; Log M -6.47756, first ERa data block (head r2)): 85.5888 and 84.856 and 83.9539 and 86.1821; Reporter gene assay raw data, ERa (ERα; Log M -6.47756, second ERa data block (head r34)): 88.8265 and 82.9979 and 83.8682 and 89.3798; Reporter gene assay raw data, ERa (ERα; Log M -6.95468, first ERa data block (head r2)): 74.2269 and 77.1348 and 79.6996 and 75.9439; Reporter gene assay raw data, ERa (ERα; Log M -6.95468, second ERa data block (head r34)): 78.2124 and 79.7922 and 76.8721 and 73.4179; Reporter gene assay raw data, ERa (ERα; Log M -7.4318, first ERa data block (head r2)): 58.4425 and 53.4049 and 54.6387 and 66.4913; Reporter gene assay raw data, ERa (ERα; Log M -7.4318, second ERa data block (head r34)): 66.1364 and 63.6537 and 63.2155 and 63.5605; Reporter gene assay raw data, ERa (ERα; Log M -7.91009, first ERa data block (head r2)): 54.5242 and 53.4131 and 49.5391 and 50.4679; Reporter gene assay raw data, ERa (ERα; Log M -7.91009, second ERa data block (head r34)): 55.1309 and 61.6988 and 46.1658 and 50.4053; Reporter gene assay raw data, ERa (ERα; Log M -8.3851, first ERa data block (head r2)): 36.2798 and 37.8765 and 41.0912 and 38.4728; Reporter gene assay raw data, ERa (ERα; Log M -8.3851, second ERa data block (head r34)): 40.2636 and 45.8507 and 39.6541 and 35.9505; Reporter gene assay raw data, ERa (ERα; Log M -8.86328, first ERa data block (head r2)): 20.0299 and 22.3737 and 21.1668 and 19.8353; Reporter gene assay raw data, ERa (ERα; Log M -8.86328, second ERa data block (head r34)): 25.3166 and 18.7166 and 21.7026 and 19.2485; Reporter gene assay raw data, ERa (ERα; Log M -9.34008, first ERa data block (head r2)): 7.216 and 7.17 and 5.351 and 7.624; Reporter gene assay raw data, ERa (ERα; Log M -9.34008, second ERa data block (head r34)): 6.164 and 5.9134 and 5.736 and 5.474; Reporter gene assay raw data, ERa (ERα; Log M -9.81816, first ERa data block (head r2)): 1.823 and 1.931 and 1.019 and 2.136; Reporter gene assay raw data, ERa (ERα; Log M -9.81816, second ERa data block (head r34)): 0.6247 and 1.953 and 0.3211 and 0.779; Reporter gene assay raw data, ERa (ERα; Log M -10.2941, first ERa data block (head r2)): 1.733 and 1.446 and -0.6404 and -0.6096; Reporter gene assay raw data, ERa (ERα; Log M -10.2941, second ERa data block (head r34)): -0.6765 and 0.406 and -1.087 and 0.2814; Reporter gene assay raw data, ERa (ERα; Log M -10.7721, first ERa data block (head r2)): -0.886 and -0.01848 and -1.926 and -0.988; Reporter gene assay raw data, ERa (ERα; Log M -10.7721, second ERa data block (head r34)): -1.593 and -1.3667 and -0.9474 and 0.114; Reporter gene assay raw data, ERa (ERα; Log M -11.248, first ERa data block (head r2)): -1.205 and 0.7176 and 0.3903 and 0.3615; Reporter gene assay raw data, ERa (ERα; Log M -11.248, second ERa data block (head r34)): -1.908 and -0.2669 and 0.1993 and -0.8382; ERa reporter gene assay raw data (response) (ERα; Log M -13, four replicate columns per compound): 0.8253 and -0.8253 and 1.478 and -1.478

Question: For `Nc1ccc(S(=O)(=O)Nc2ccnn2-c2ccccc2)cc1` [Sulfaphenazole], which inhibition at 10 µM (CYP2C9) is on record?
Answer: The inhibition at 10 µM was 93.9%.
